From PMC6858373 (Scientific Reports, 2019)
Structures can show the parent of a compound that is named as a salt. Where two headings read alike, the source gives them in different places.

Legend:
[1] = target: T1, FGF14:Nav1.6 C-tail complex (Homo sapiens, UniProt Q92915+Q9UQD0); assay: Split-luciferase complementation assay (LCA) in Clone V double stable HEK293 cells; assay type: cell-based; conditions: for Split Luciferase Assay Z-score Set 1 / Split Luciferase Assay % Lum Set 1: biological replicate Set 1; for Split Luciferase Assay Z-score Set 1 / Split Luciferase Assay Z-score Set 2: normalized to on-plate 0.3% DMSO controls; for Split Luciferase Assay % Lum Set 1 / Split Luciferase Assay %Lum Set 2: normalized to on-plate 0.3% DMSO controls (n=16 per plate); for Split Luciferase Assay Z-score Set 2 / Split Luciferase Assay %Lum Set 2: biological replicate Set 2; for Split Luciferase Assay %Lum Avg: average of Set 1 and Set 2, normalized to 0.3% DMSO controls
T1 construct: polymerase chain reaction (PCR) amplification of the FGF14 open reading frame (nt 1–855); C-terminal fragment of Nav1.6 (amino acids 1763–1976) fused with CD4ΔC-tail (amino acids 1–395); expressed in transfected cells

[2] = target: full-length P. pyralis luciferase (Photinus pyralis, UniProt P08659, K549A/L550V/N119G/N50D/S548I); assay type: cell-based; conditions: CC_NCI screening, normalized to on-plate 0.3% DMSO controls; for Luciferase Assay % Lum: full-length luciferase counter-screen luminescence; for Luciferase Assay Z-score: full-length luciferase counter-screen
in vitro = conditions: human
Clone V cells [3] = conditions: human
Clone V cells [4] = assay: CellTiter Blue (CTB) cell viability counter-screen; conditions: CC_NCI screening; CTB cell viability fluorescence; normalized to on-plate 0.3% DMSO controls
[5] = CC_NCI screening, LCA luminescence

T1 sequence (Q92915 1-252 isoform Q92915-2): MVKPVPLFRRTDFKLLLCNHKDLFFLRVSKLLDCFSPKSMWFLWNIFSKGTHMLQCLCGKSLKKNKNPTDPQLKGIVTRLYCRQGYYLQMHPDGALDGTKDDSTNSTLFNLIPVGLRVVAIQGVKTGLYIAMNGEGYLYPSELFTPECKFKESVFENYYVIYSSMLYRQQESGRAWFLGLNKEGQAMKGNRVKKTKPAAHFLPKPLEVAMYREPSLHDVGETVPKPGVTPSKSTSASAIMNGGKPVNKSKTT
T1 sequence (Q9UQD0 1763-1976 limits assumed): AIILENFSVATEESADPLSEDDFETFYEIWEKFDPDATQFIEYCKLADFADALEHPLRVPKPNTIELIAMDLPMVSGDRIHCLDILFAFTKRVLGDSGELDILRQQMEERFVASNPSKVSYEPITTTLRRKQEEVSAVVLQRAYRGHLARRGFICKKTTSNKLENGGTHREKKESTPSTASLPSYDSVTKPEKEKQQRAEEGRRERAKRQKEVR
full-length P. pyralis luciferase, sequence (P08659 whole entry N50D/N119G/S548I/K549A/L550V, looked up): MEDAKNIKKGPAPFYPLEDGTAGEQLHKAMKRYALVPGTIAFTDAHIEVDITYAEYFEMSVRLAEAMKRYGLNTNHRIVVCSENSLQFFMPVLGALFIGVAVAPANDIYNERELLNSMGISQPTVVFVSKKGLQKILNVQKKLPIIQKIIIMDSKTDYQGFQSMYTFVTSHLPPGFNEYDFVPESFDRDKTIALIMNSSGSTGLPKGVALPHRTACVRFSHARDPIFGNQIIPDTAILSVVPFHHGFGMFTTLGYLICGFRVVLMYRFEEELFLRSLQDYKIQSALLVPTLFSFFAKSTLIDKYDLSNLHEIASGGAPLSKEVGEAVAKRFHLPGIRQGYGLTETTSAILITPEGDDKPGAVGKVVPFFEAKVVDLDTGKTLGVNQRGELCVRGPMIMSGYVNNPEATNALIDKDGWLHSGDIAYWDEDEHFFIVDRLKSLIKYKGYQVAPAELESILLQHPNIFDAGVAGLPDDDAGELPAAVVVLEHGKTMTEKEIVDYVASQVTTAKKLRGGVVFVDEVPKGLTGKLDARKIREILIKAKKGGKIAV

| Structure (SMILES) | Luciferase Assay Z-score (full-length luciferase counter-screen) [2] | Split Luciferase Assay % Lum Set 1 [1, 5] [%] | Split Luciferase Assay %Lum Set 2 [1, 5] [%] | Split Luciferase Assay Z-score Set 1 ([1]; CC_NCI screening, LCA) | Split Luciferase Assay Z-score Set 2 ([1]; CC_NCI screening, LCA) | Split Luciferase Assay %Lum Avg ([1]; CC_NCI screening) [%] | Luciferase Assay % Lum [2] [%] | Luciferase Assay Z-score [2] | Toxicity Assay % Fluor (Clone V cells [4]) [%] | Toxicity Assay Z-score (Clone V cells [3]; 16 h, 30 µM) | other results |
| --- | --- | --- | --- | --- | --- | --- | --- | --- | --- | --- | --- |
| Cc1[nH]c2ccccc2c1CCNCc1ccc(/C=C/C(=O)NO)cc1 [LBH-589] | 0.20 | – | – | – | – | – | – | – | – | – | Split Luciferase Assay Z-score Set 1 ([1]; CC_NCI screening): -1.99; Split Luciferase Assay % Lum Set 1 ([1]; CC_NCI screening): 75.34%; Split Luciferase Assay Z-score Set 2 ([1]; CC_NCI screening): -0.18; Split Luciferase Assay %Lum Set 2 ([1]; CC_NCI screening): 97.79%; Split Luciferase Assay %Lum Avg [1]: 86.56%; Luciferase Assay % Lum (full-length luciferase counter-screen) [2]: 101.54%; viability at 16 h, 30 µM (in vitro; Clone V cells): 106%; Toxicity Assay Z-score (CTB cell viability) (Clone V cells [3]; 16 h, 30 µM): 0.78 |
| CN(C)C[C@@H]1CCn2cc(c3ccccc32)C2=C(C(=O)NC2=O)c2cn(c3ccccc23)CCO1 [LY 333531, reference compound] | -2.76 | – | – | – | – | – | – | – | – | – | Z-score (LCA primary screening) ([1]; 30 µM, 384-well, average of primary screening (n = 2), vs on-plate 0.3% DMSO): −5.33; Split Luciferase Assay Z-score Set 1 ([1]; CC_NCI screening): -4.72; Split Luciferase Assay % Lum Set 1 ([1]; CC_NCI screening): 41.64%; Split Luciferase Assay Z-score Set 2 ([1]; CC_NCI screening): -5.94; Split Luciferase Assay %Lum Set 2 ([1]; CC_NCI screening): 27.05%; IMin (% Luminescence) ([1]; antagonists, Clone V cells, 384-well, normalized to DMSO): 34.34 % Luminescence; Split Luciferase Assay %Lum Avg [1]: 34.34%; IC50 ([1]; estimated, 8-point dose response 0.25-30 µM, n = 4 per concentration, library compounds, read-out: IC50): 12.2 µM; Luciferase Assay % Lum (full-length luciferase counter-screen) [2]: 78.46%; viability at 16 h, 30 µM (in vitro): 101%; Toxicity Assay Z-score (CTB cell viability) (Clone V cells [3]; 16 h, 30 µM): 0.14 |
| COc1c2occc2cc2ccc(=O)oc12 [Methoxsalen] | -0.78 | – | – | – | – | – | – | – | – | – | Luciferase Assay % Lum (full-length luciferase counter-screen) [2]: 93.90%; viability at 16 h, 30 µM (in vitro): 109%; Toxicity Assay Z-score (CTB cell viability) (Clone V cells [3]; 16 h, 30 µM): 1.23 |
| Sc1ncnc2nc[nH]c12 [Mercaptopurine] | 0.26 | – | – | – | – | – | – | – | – | – | Split Luciferase Assay Z-score Set 1 ([1]; CC_NCI screening): 1.52; Split Luciferase Assay % Lum Set 1 ([1]; CC_NCI screening): 118.82%; Split Luciferase Assay Z-score Set 2 ([1]; CC_NCI screening): 1.01; Split Luciferase Assay %Lum Set 2 ([1]; CC_NCI screening): 112.35%; Split Luciferase Assay %Lum Avg [1]: 115.59%; Luciferase Assay % Lum (full-length luciferase counter-screen) [2]: 102.01%; viability at 16 h, 30 µM (in vitro): 106%; Toxicity Assay Z-score (CTB cell viability) (Clone V cells [3]; 16 h, 30 µM): 0.87 |
| Oc1cccc(-c2nc(N3CCOCC3)c3oc4ncccc4c3n2)c1 [PI-103] | 0.79 | – | – | – | – | – | – | – | – | – | Split Luciferase Assay Z-score Set 1 ([1]; CC_NCI screening): 0.91; Split Luciferase Assay % Lum Set 1 ([1]; CC_NCI screening): 111.21%; Split Luciferase Assay Z-score Set 2 ([1]; CC_NCI screening): -0.43; Split Luciferase Assay %Lum Set 2 ([1]; CC_NCI screening): 94.67%; Split Luciferase Assay %Lum Avg [1]: 102.94%; viability at 16 h, 30 µM (in vitro; Clone V cells): 119%; Toxicity Assay Z-score (CTB cell viability) (Clone V cells [3]; 16 h, 30 µM): 2.64 |
| O=P1(NCCCl)OCCCN1CCCl (stereo not shown) [Ifosfamide] | -0.44 | – | – | – | – | – | – | – | – | – | Split Luciferase Assay Z-score Set 1 ([1]; CC_NCI screening): 1.26; Split Luciferase Assay % Lum Set 1 ([1]; CC_NCI screening): 115.56%; Split Luciferase Assay Z-score Set 2 ([1]; CC_NCI screening): -0.01; Split Luciferase Assay %Lum Set 2 ([1]; CC_NCI screening): 99.87%; Split Luciferase Assay %Lum Avg [1]: 107.71%; Luciferase Assay % Lum (full-length luciferase counter-screen) [2]: 96.59%; viability (in vitro): 106%; Toxicity Assay Z-score (CTB cell viability) (Clone V cells [3]): 0.82 |
| O=C1CCC(N2C(=O)c3ccccc3C2=O)C(=O)N1 (stereo not shown) [Thalidomide] | – | 128.60 | 108.19 | 2.31 | 0.67 | 118.40 | 100.85 | 0.11 | 87.53 | -1.74 | – |
| COC(=O)C[C@](O)(CCCC(C)(C)O)C(=O)O[C@@H]1C(OC)=C[C@]23CCCN2CCc2cc4c(cc2[C@H]13)OCO4 [Omacetaxine mepesuccinate] | – | 20.98 | 19.77 | -6.39 | -6.53 | 20.37 | 87.82 | -1.56 | 93.81 | -0.87 | – |
| CN(C)CC[C@H](CSc1ccccc1)Nc1ccc(S(=O)(=O)NC(=O)c2ccc(N3CCN(Cc4ccccc4-c4ccc(Cl)cc4)CC3)cc2)cc1[N+](=O)[O-] [ABT-737] | – | 132.95 | 126.92 | 2.66 | 2.19 | 129.94 | 95.47 | -0.58 | 107.35 | 1.03 | – |
| CC[C@]1(O)C[C@H]2CN(CCc3c([nH]c4ccccc34)[C@@](C(=O)OC)(c3cc4c(cc3OC)N(C=O)[C@H]3[C@@](O)(C(=O)OC)[C@H](OC(C)=O)[C@]5(CC)C=CCN6CC[C@]43[C@@H]65)C2)C1 [Vincristine sulfate] | – | 200.35 | 196.62 | 8.11 | 7.86 | 198.49 | 109.71 | 1.24 | 98.56 | -0.20 | – |
| N#Cc1ccc(C(c2ccc(C#N)cc2)n2cncn2)cc1 [Letrozole] | – | 99.25 | 115.47 | -0.06 | 1.26 | 107.36 | 99.90 | -0.01 | 93.68 | -0.88 | – |
| Oc1ncnc2[nH]ncc12 [Allopurinol] | – | 106.86 | 95.71 | 0.55 | -0.35 | 101.29 | 96.95 | -0.39 | 88.22 | -1.65 | – |
| O=C(/C=C/c1cccc(S(=O)(=O)Nc2ccccc2)c1)NO [PXD101] | – | 105.78 | 106.11 | 0.47 | 0.50 | 105.94 | 87.87 | -1.55 | 96.16 | -0.54 | – |
| CS(=O)(=O)CCNCc1ccc(-c2ccc3ncnc(Nc4ccc(OCc5cccc(F)c5)c(Cl)c4)c3c2)o1 [LAPATINIB] | – | – | 95.71 | – | -0.35 | 107.26 | 87.41 | -1.61 | 85.57 | -2.02 | – |
| Oc1ccc(-c2nc(-c3ccncc3)c(-c3ccc(F)cc3)[nH]2)cc1 [SB 202190] | – | 101.43 | 105.07 | 0.12 | 0.41 | 103.25 | 79.13 | -2.67 | 96.10 | -0.55 | – |
| CNCc1ccc(-c2[nH]c3cc(F)cc4c3c2CCNC4=O)cc1 [AG014699] | – | 65.55 | 67.62 | -2.78 | -2.63 | 66.59 | 82.53 | -2.24 | 96.59 | -0.48 | – |
| CC1(C)CCC(c2ccc(Cl)cc2)=C(CN2CCN(c3ccc(C(=O)NS(=O)(=O)c4ccc(N[C@H](CCN5CCOCC5)CSc5ccccc5)c(S(=O)(=O)C(F)(F)F)c4)cc3)CC2)C1 [ABT-263] | – | 93.82 | 71.78 | -0.50 | -2.30 | 82.80 | 103.24 | 0.42 | 92.92 | -0.99 | – |
| C=CC[C@@H]1/C=C(\C)C[C@H](C)C[C@H](OC)[C@H]2O[C@@](O)(C(=O)C(=O)N3CCCC[C@H]3C(=O)O[C@H](/C(C)=C/[C@@H]3CC[C@@H](O)[C@H](OC)C3)[C@H](C)[C@@H](O)CC1=O)[C@H](C)C[C@@H]2OC [FK-506] | – | 80.77 | 91.55 | -1.55 | -0.69 | 86.16 | 77.49 | -2.88 | 113.03 | 1.82 | – |
